Assay results taken from publication PMC7802074, “Azanitrile Inhibitors of the SmCB1 Protease Target Are Lethal to Schistosoma mansoni: Structural and Mechanistic Insights into Chemotype Reactivity” (ACS Infectious Diseases, 2020).
Values joined by “and” are separate entries in the source; they are usually repeats but may differ in a detail not shown here. Equal values may be shown once. Read-outs that look alike come from different tables or passages of the source.

What was measured:
[1] = test system: S. mansoni newly transformed schistosomula (NTS); assay: Schistosome phenotypic assay; type: cell-based, Schistosoma mansoni; details: for Severity score Day 1 / Severity score Day 2 / Severity score Day 3 / Severity score Day 4: 10 μM inhibitor, scale 0 (no effect) to 4 (severe); for Severity score Day 1: 24 h; for Severity score Day 2: 48 h; for Descriptors Day 1 (phenotypic changes) / Descriptors Day 2 (phenotypic changes) / Descriptors Day 3 (phenotypic changes) / Descriptors Day 4 (phenotypic changes): 10 µM inhibitor
Experimental: Newly transformed schistosomula (NTS) of S. mansoni were prepared by mechanically transforming infective larvae (cercariae) as described previously.[70],[71] NTS (200–300 parasites) were incubated in 200 μL of Basch Medium 169 containing 5% FBS, 100 U mL^–1 penicillin, and 100 μg mL^–1 streptomycin at 5% CO2 and 37 °C.[70],[72],[73] Inhibitors were added at the final concentration of 10 μM,[20],[69] and changes in phenotypes were observed every 24 h for up to 4 days. A constrained nomenclature of “descriptors” is used to record the multiple and dynamic changes in movement, shape, and translucence of which the schistosome parasite is capable (Table S3).[70] These descriptors are then converted into an ordinal “severity score” system from 0 (no effect) to 4 (maximum effect), which allows for the relative comparison of compound effects, as described.[74],[75] Images of NTS were captured using a Zeiss Axiovert 40 C inverted microscope (10× objective) and a Zeiss AxioCam MRc digital camera controlled by AxioVision 40 (v. 4.8.1.0) software.

recombinant SmCB1 = recombinant SmCB1 (Schistosoma mansoni, UniProt Q8MNY2, T185A/T300A); assay: SmCB1 kinetic inhibition assay with fluorogenic substrate Cbz-Phe-Arg-AMC; type: biochemical; details: for Ki / SmCB1 inhibition k2nd (second-order rate constant): substrate Cbz-Phe-Arg-AMC; for SmCB1 inhibition k2nd (second-order rate constant): slow-binding azadipeptide nitriles
Sequence of recombinant SmCB1 (Q8MNY2 87-340 T185A/T300A): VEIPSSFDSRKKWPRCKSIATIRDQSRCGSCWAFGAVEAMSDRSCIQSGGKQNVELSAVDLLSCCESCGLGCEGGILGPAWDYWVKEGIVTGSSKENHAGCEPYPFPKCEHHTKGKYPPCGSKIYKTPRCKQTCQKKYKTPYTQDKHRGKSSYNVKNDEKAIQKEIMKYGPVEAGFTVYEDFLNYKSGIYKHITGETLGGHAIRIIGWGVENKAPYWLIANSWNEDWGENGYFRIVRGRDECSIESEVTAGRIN
Experimental: Inhibition measurements were performed in triplicates in 96-well microplates (100 μL assay volume) at 37 °C. SmCB1 (20–40 pM) was added to a mixture of the fluorogenic substrate Cbz-Phe-Arg-AMC (20 μM) and an inhibitor (0–100 μM) in 0.1 M sodium acetate, pH 5.5, containing 2.5 mM dithiothreitol and 0.1% PEG 6000. The substrate hydrolysis was monitored in an Infinite M1000 microplate reader (Tecan, Männedorf, Switzerland) at excitation and emission wavelengths of 360 and 465 nm, respectively, for up to 15 and 60 min for fast- and slow-binding inhibitors, respectively. […] For slow-binding inhibitors, an observed first-order rate constant kobs was calculated at each inhibitor concentration by fitting the progress curve to the equation P = vst + (vi – vs)(1 – […])/kobs + d, where P is the product formation, vs is the steady-state velocity, t is the reaction time, vi is the initial velocity, and d is the offset. The inhibition constant Ki′ was determined by nonlinear regression using the equation vs/v0 = 1/(1 + [I]/Ki′). The true inhibition constants Ki were then calculated using the equation Ki = Ki′/(1 + [S]/Km), where [S] is the substrate concentration and Km is the Michaelis constant. The apparent second-order rate constant k2nd′ was determined by fitting to the linear equation kobs = k2nd′[I] + koff, where koff is the first-order rate constants for the dissociation of the enzyme–inhibitor complex and the true constant k2nd was calculated by the correction k2nd = k2nd′(1 + [S]/Km). […] In none of the assay systems did the final concentration of DMSO exceed 1.5%.

[2] = SmCB1 inhibition Ki, Table S2, carbadipeptide nitriles
[3] = SmCB1 inhibition Ki, kinetic activity assay, pH 5.5, 37 °C
[4] = Table S2, carbadipeptide nitriles, read-out: SmCB1 inhibition Ki

Row | Compound | Severity score Day 1 [1] | Severity score Day 2 [1] | Severity score Day 3 [1] | Severity score Day 4 [1] | Ki (recombinant SmCB1; [2]) | Ki (recombinant SmCB1; [3]) | Descriptors Day 1 (phenotypic changes) [1] | Descriptors Day 2 (phenotypic changes) [1] | Descriptors Day 3 (phenotypic changes) [1] | Descriptors Day 4 (phenotypic changes) [1] | Ki (recombinant SmCB1; [4]) | SmCB1 inhibition k2nd (second-order rate constant) (recombinant SmCB1) | decrease in potency versus 5a (recombinant SmCB1; ratio of SmCB1 Ki values)
1 | CC(C)C[C@H](NC(=O)NCc1ccccc1)C(=O)NCC#N [Compound 3c, (S)-2-(3-Benzylureido)-N-(cyanomethyl)-4-methylpentanamide] | 0 | 0 | 0 | 0 | > 10000 nM | > 100000 nM | – | – | – | – | – | – | –
2 | N#CCNC(=O)C1(NC(=O)c2ccc(-c3noc(-c4cccs4)n3)cc2)CCCCC1 [Compound 7c] | 0 | 0 | 0 | 0 | > 10000 nM | > 100000 nM | – | – | – | – | – | – | –
3 | CC(C)C[C@H](NC(=O)Nc1ccccc1)C(=O)N(C)N(C)C#N [Compound 18a] | 2 | 4 | 4 | 4 | – | 112 ± 11 nM | R, Unc | Deg | – | – | – | – | –
4 | CC(C)C[C@H](NC(=O)c1ccc(-c2ccccc2)cc1)C(=O)NCC#N [Gü2420] | 0 | 2 | 2 | 2 | – | – | – | R, Dark | R, Dark | R, Dark | 56 ± 13 nM | – | –
5 | CN(C(=O)[C@H](Cc1ccccc1)NC(=O)OCc1ccccc1)N(C#N)Cc1ccccc1 [Compound 10a] | 2 | 4 | 4 | 4 | – | 48.9 ± 4.7 nM | R, Unc | Deg | – | – | – | 1.5 ± 0.1 10^3 M^-1 s^-1 | –
6 | CN(CC#N)C(=O)[C@H](Cc1ccccc1)NC(=O)OCc1ccccc1 [Compound 9c] | 0 | 0 | 0 | 0 | > 10000 nM | > 100000 nM | – | – | – | – | – | – | –
7 | CC(C)(C)OC(=O)N[C@@H](Cc1cccs1)C(=O)NCC#N [Gü969] | 0 | 0 | 0 | 0 | – | – | – | – | – | – | 620 ± 50 nM | – | –
8 | CC(C)C[C@H](NC(=O)c1ccc(-c2noc(-c3cccs3)n2)cc1)C(=O)NCC#N [Compound 5c] | 0 | 1 | 2 | 4 | 1220 ± 200 nM | 1210 ± 205 nM | – | R | R, Dark | Deg | – | – | –
9 | N#CCNC(=O)[C@H](Cc1ccc(O)cc1)NC(=O)OCc1ccccc1 [Gü2031] | 0 | 0 | 0 | 0 | – | – | – | – | – | – | 760 ± 220 nM | – | –
10 | CC(C)C[C@@H](C(=O)N(C)N(C)C#N)N(C)C(=O)c1ccc(-c2noc(-c3cccs3)n2)cc1 [Compound 6a] | 4 and 4/4 | 4 and 4/4 | 4 | 4 | – | 1540 ± 250 nM | Deg | Deg | – | – | – | 0.5 ±0.1 10^3 M^-1 s^-1 | 300 fold
